Molecular target: T1, EpxF (Goodfellowiella coeruleoviolacea, UniProt V5RNC8)
T1 construct: expressed in Escherichia coli; homodimer; residues 253-264 and 336-346 not defined in the density
T1 sequence (V5RNC8 2-563): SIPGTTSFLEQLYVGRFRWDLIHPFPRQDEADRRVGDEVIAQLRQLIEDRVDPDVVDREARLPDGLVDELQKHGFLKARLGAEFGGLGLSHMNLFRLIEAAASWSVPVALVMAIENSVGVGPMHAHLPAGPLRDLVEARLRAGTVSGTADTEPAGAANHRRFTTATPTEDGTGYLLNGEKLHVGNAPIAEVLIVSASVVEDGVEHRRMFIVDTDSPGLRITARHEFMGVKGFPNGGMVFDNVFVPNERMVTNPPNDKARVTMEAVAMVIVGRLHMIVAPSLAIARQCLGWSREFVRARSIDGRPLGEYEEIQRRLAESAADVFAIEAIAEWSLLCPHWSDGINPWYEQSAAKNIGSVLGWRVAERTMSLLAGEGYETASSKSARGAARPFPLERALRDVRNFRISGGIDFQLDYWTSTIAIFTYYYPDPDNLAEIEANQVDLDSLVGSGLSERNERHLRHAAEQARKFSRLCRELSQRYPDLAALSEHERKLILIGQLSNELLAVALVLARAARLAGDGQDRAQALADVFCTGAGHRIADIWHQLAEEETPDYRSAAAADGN
Test: X-ray crystal structure, […] Å
Assay type: binding
Details: FAD bound in both subunits of the homodimer, adenine anchored in the dimer interface

Compound: Cc1cc2nc3c(=O)[nH]c(=O)nc-3n(C[C@H](O)[C@H](O)[C@H](O)COP(=O)(O)OP(=O)(O)OC[C@H]3O[C@@H](n4cnc5c(N)ncnc54)[C@H](O)[C@@H]3O)c2cc1C [FAD]
- X-ray crystal structure, 2.4 Å: electron density map depicts FAD bound at two distinct catalytic centers
